Patent publication US10544140B2, “Pharmaceutical composition containing, as active ingredient, 7-azaindolin-2-one derivative or pharmaceutically acceptable salt thereof” (LG CHEM, LTD., priority 2015, dated 2020)
pIC50: −log10 of the molar value. Like-named read-outs stand apart in the source and are kept apart here.

How the values were obtained:
[1] = system: MCF-7 (human breast cancer cell line); test: Cytotoxicity test by MTT assay, MCF-7; type: cell-based; details: Homo sapiens, read-out: Cell viability (% inhibition)
Procedure: (§1) A cytotoxicity test was measured by MTT assay. Each cell line was cultured in a 96-well plate at a density of 1×10^4 cells/well. […] MTT (3-(4,5-dimethylthiazol-2-yl)-2,5-diphenyltetrazolium bromide) solution (5 mg/mL) was added to each well and reacted for 4 hours in an incubator. […] After reacting in an incubator for 30 minutes, the formation of formazan was quantified using a microplate reader at an absorbance of 540 nm. […] At this time, sunitinib was used as a control group. […] The human cancer cell lines used herein are MCF-7 (breast cancer), MDA-MB-231 (breast cancer), HT-29 (colon cancer), DU145 (prostate cancer), U937 (myeloid leukemia), A549 (lung cancer), PANC-1 (pancreatic cancer) and MIA PaCa-2 (pancreatic cancer).

[2] = system: PANC-1 (human pancreatic cancer cell line); test: Cytotoxicity test by MTT assay, PANC-1; type: cell-based; details: Homo sapiens, read-out: Cell viability (% inhibition)
Procedure: as §1

[3] = system: MDA-MB-231 (breast cancer); test: Cytotoxicity test by MTT assay, MDA-MB-231; type: cell-based, human
Procedure: (§2) A cytotoxicity test was measured by MTT assay. Each cell line was cultured in a 96-well plate at a density of 1×10^4 cells/well. After 24 hours, the culture medium containing 1% FBS (fetal bovine serum) was treated and reacted with compounds or solutions of compounds for 48 hours. MTT (3-(4,5-dimethylthiazol-2-yl)-2,5-diphenyltetrazolium bromide) solution (5 mg/mL) was added to each well and reacted for 4 hours in an incubator. […] After reacting in an incubator for 30 minutes, the formation of formazan was quantified using a microplate reader at an absorbance of 540 nm. […] The human cancer cell lines used herein are MCF-7 (breast cancer), MDA-MB-231 (breast cancer), HT-29 (colon cancer), DU145 (prostate cancer), U937 (myeloid leukemia), A549 (lung cancer), PANC-1 (pancreatic cancer) and MIA PaCa-2 (pancreatic cancer).

[4] = system: HT-29 (colon cancer); test: Cytotoxicity test by MTT assay, HT-29; type: cell-based, human
Procedure: as §2

[5] = system: DU145 (prostate cancer); test: Cytotoxicity test by MTT assay, DU145; type: cell-based, human; details: DU-145
Procedure: as §2

[6] = system: U937 (myeloid leukemia); test: Cytotoxicity test by MTT assay, U937; type: cell-based, human
Procedure: as §2

[7] = system: A549 (lung cancer); test: Cytotoxicity test by MTT assay, A549; type: cell-based, human
Procedure: as §2

[8] = Cytotoxicity test by MTT assay, HEK293 normal cell line; type: cell-based; details: human, HEK293 cells (normal cell line)
Procedure: A cytotoxicity test was measured by MTT assay. Each cell line was cultured in a 96-well plate at a density of 1×10^4 cells/well. After 24 hours, the culture medium containing 1% FBS (fetal bovine serum) was treated and reacted with compounds or solutions of compounds for 48 hours. MTT (3-(4,5-dimethylthiazol-2-yl)-2,5-diphenyltetrazolium bromide) solution (5 mg/mL) was added to each well and reacted for 4 hours in an incubator. […] After reacting in an incubator for 30 minutes, the formation of formazan was quantified using a microplate reader at an absorbance of 540 nm.

| SMILES | cytotoxicity at 30 µM ([1]; MCF7, MCF-7, 30 μM, 48 h) [%] | cytotoxicity at 30 µM ([2]; PANC-1, 30 μM, 48 h) [%] | other results |
| --- | --- | --- | --- |
| CCC(/C=C1\C(=O)Nc2nc(C)c(O)c(C)c21)CC [Compound I-02, (Z)-3-(2-Ethylbutylidene)-5-hydroxy-4,6-dimethyl-1H-pyrrolo[2,3-b]pyridin-2(3H)-one] | 30.5 | 44.9 | – |
| CC(C)=C/C=C1\C(=O)Nc2nc(C)c(O)c(C)c21 [Compound I-03, (Z)-5-Hydroxy-4,6-dimethyl-3-(3-methylbut-2-enylidene)-1H-pyrrolo[2,3-b]pyridin-2(3H)-one] | 6.6 | 37.5 | – |
| COc1cc(/C=C/C=C2\C(=O)Nc3nc(C)c(O)c(C)c32)ccc1O [Compound I-04, (Z)-5-Hydroxy-3-((E)-3-(4-hydroxy-3-methoxyphenyl)allylidene)-4,6-dimethyl-1H-pyrrolo[2,3-b]pyridin-2(3H)-one] | 6.9 | 24.4 | – |
| Cc1nc2c(c(C)c1O)/C(=C/C1CCCCC1)C(=O)N2 [Compound I-05, (Z)-3-(Cyclohexylmethylene)-5-hydroxy-4,6-dimethyl-1H-pyrrolo[2,3-b]pyridin-2(3H)-one] | 10 | 49 | – |
| Cc1ccc(/C=C2\C(=O)Nc3nc(C)c(O)c(C)c32)cc1 [Compound I-06, (Z)-5-Hydroxy-4,6-dimethyl-3-(4-methylbenzylidene)-1H-pyrrolo[2,3-b]pyridin-2(3H)-one] | 32.3 | 29.1 | – |
| Cc1nc2c(c(C)c1O)/C(=C/c1ccccc1[N+](=O)[O-])C(=O)N2 [Compound I-07, (Z)-5-Hydroxy-4,6-dimethyl-3-(2-nitrobenzylidene)-1H-pyrrolo[2,3-b]pyridin-2(3H)-one] | 23.9 | 27.8 | – |
| Cc1nc2c(c(C)c1O)/C(=C/c1ccc([N+](=O)[O-])cc1)C(=O)N2 [Compound I-08, (Z)-5-Hydroxy-4,6-dimethyl-3-(4-nitrobenzylidene)-1H-pyrrolo[2,3-b]pyridin-2(3H)-one] | 16.3 | 32.5 | – |
| Cc1nc2c(c(C)c1O)/C(=C/c1ccc(F)cc1)C(=O)N2 [Compound I-09, (Z)-3-(4-Fluorobenzylidene)-5-hydroxy-4,6-dimethyl-1H-pyrrolo[2,3-b]pyridin-2(3H)-one] | 48.3 | 51.8 | – |
| Cc1nc2c(c(C)c1O)/C(=C/c1ccc(Cl)cc1)C(=O)N2 [Compound I-10, (Z)-3-(4-Chlorobenzylidene)-5-hydroxy-4,6-dimethyl-1H-pyrrolo[2,3-b]pyridin-2(3H)-one] | 51.7 | 44.9 | – |
| Cc1nc2c(c(C)c1O)/C(=C/c1ccccc1O)C(=O)N2 [Compound I-11, (Z)-5-Hydroxy-3-(2-hydroxybenzylidene)-4,6-dimethyl-1H-pyrrolo[2,3-b]pyridin-2(3H)-one] | 29.2 | 42 | – |
| COc1ccccc1/C=C1\C(=O)Nc2nc(C)c(O)c(C)c21 [Compound I-12, (Z)-5-hydroxy-3-(2-methoxybenzylidene)-4,6-dimethyl-1H-pyrrolo[2,3-b]pyridin-2(3H)-one] | 30.7 | 10.2 | – |
| COc1cccc(/C=C2\C(=O)Nc3nc(C)c(O)c(C)c32)c1 [Compound I-13, (Z)-5-Hydroxy-3-(3-methoxybenzylidene)-4,6-dimethyl-1H-pyrrolo[2,3-b]pyridin-2(3H)-one] | 29.6 | 46.4 | – |
| COc1ccc(/C=C2\C(=O)Nc3nc(C)c(O)c(C)c32)cc1 [Compound I-14, (Z)-5-Hydroxy-3-(4-methoxybenzylidene)-4,6-dimethyl-1H-pyrrolo[2,3-b]pyridin-2(3H)-one] | 23.9 | 36.3 | – |
| COc1cc(/C=C2\C(=O)Nc3nc(C)c(O)c(C)c32)cc(OC)c1OC [Compound I-16, (Z)-5-Hydroxy-4,6-dimethyl-3-(3,4,5-trimethoxybenzylidene)-1H-pyrrolo[2,3-b]pyridin-2(3H)-one] | 41.2 | 40.6 | – |
| Cc1nc2c(c(C)c1O)/C(=C/c1ccc3ccccc3c1)C(=O)N2 [Compound I-20, (Z)-5-Hydroxy-4,6-dimethyl-3-(naphthalen-2-ylmethylene)-1H-pyrrolo[2,3-b]pyridin-2(3H)-one] | 30.5 | 28.9 | – |
| Cc1nc2c(c(C)c1O)/C(=C/c1ccccn1)C(=O)N2 [Compound I-21, (Z)-5-Hydroxy-4,6-dimethyl-3-(pyridin-2-ylmethylene)-1H-pyrrolo[2,3-b]pyridin-2(3H)-one] | 28.1 | 29.2 | – |
| Cc1nc2c(c(C)c1O)/C(=C/c1ccc3ccccc3n1)C(=O)N2 [Compound I-24, (Z)-5-Hydroxy-4,6-dimethyl-3-(quinolin-2-ylmethylene)-1H-pyrrolo[2,3-b]pyridin-2(3H)-one] | – | – | cytotoxicity compared with the reference drug sunitinib [3]: greater than or equal to that of the reference drug sunitinib; pIC50 ([3]; Homo sapiens, MBA-MB-231, 48 h): 5.55; cytotoxicity compared with the reference drug sunitinib ([4]; HT-29): greater than or equal to that of the reference drug sunitinib; pIC50 ([4]; Homo sapiens, HT-29, 48 h): 5.34; cytotoxicity compared with the reference drug sunitinib [5]: greater than or equal to that of the reference drug sunitinib; pIC50 ([5]; Homo sapiens, DU145, 48 h): 5.97; pIC50 ([6]; Homo sapiens, U-937, U937, 48 h): 5.18; cytotoxicity compared with the reference drug sunitinib ([6]; U937): greater than or equal to that of the reference drug sunitinib; cytotoxicity compared with the reference drug sunitinib ([7]; A-549): greater than or equal to that of the reference drug sunitinib; pIC50 ([7]; Homo sapiens, A549, 48 h): 5.38; IC50 at 48 h [8]: 46.8 µM |
| Cc1nc2c(c(C)c1O)/C(=C/c1cccc3[nH]ccc13)C(=O)N2 [Compound I-25, (Z)-3-((1H-Indol-4-yl)methylene)-5-hydroxy-4,6-dimethyl-1H-pyrrolo[2,3-b]pyridin-2(3H)-one] | 14.5 | 32.3 | – |
| Cc1nc2c(c(C)c1O)/C(=C/c1c[nH]c3ccccc13)C(=O)N2 [Compound I-26, (Z)-3-((1H-Indol-3-yl)methylene)-5-hydroxy-4,6-dimethyl-1H-pyrrolo[2,3-b]pyridin-2(3H)-one] | 2.4 | 17.1 | – |
| Cc1nc2c(c(C)c1O)/C(=C/c1ccco1)C(=O)N2 [Compound I-27, (Z)-3-(Furan-2-ylmethylene)-5-hydroxy-4,6-dimethyl-1H-pyrrolo[2,3-b]pyridin-2(3H)-one] | 31.5 | 16.4 | – |
| Cc1nc2c(c(C)c1O)/C(=C/c1cccs1)C(=O)N2 [Compound I-29, (Z)-5-Hydroxy-4,6-dimethyl-3-(thiophen-2-ylmethylene)-1H-pyrrolo[2,3-b]pyridin-2(3H)-one] | 57.8 | 42.2 | – |
| Cc1ccsc1/C=C1\C(=O)Nc2nc(C)c(O)c(C)c21 [Compound I-30, (Z)-5-Hydroxy-4,6-dimethyl-3-((3-methylthiophen-2-yl)methylene)-1H-pyrrolo[2,3-b]pyridin-2(3H)-one] | 59 | 47.2 | – |
| Cc1nc2c(c(C)c1O)/C(=C/c1ncc[nH]1)C(=O)N2 [Compound I-33, (Z)-3-((1H-Imidazol-2-yl)methylene)-5-hydroxy-4,6-dimethyl-1H-pyrrolo[2,3-b]pyridin-2(3H)-one] | 2.6 | 7.2 | – |
| Cc1nc2c(c(C)c1O)/C(=C/c1c[nH]cn1)C(=O)N2 [Compound I-34, (Z)-3-((1H-Imidazol-4-yl)methylene)-5-hydroxy-4,6-dimethyl-1H-pyrrolo[2,3-b]pyridin-2(3H)-one] | – | – | cytotoxicity at 30 µM ([1]; MCF7, 48 h): 4.1%; cytotoxicity at 30 µM ([2]; PANC-1, 48 h): 4.5% |
| Cc1nc2c(c(C)c1O)/C(=C/c1nccs1)C(=O)N2 [Compound I-35, (Z)-5-Hydroxy-4,6-dimethyl-3-(thiazol-2-ylmethylene)-1H-pyrrolo[2,3-b]pyridin-2(3H)-one] | 5.6 | 9 | – |
